The source of these data is patent US20120095032A1, “METHODS FOR TREATING LEUKEMIA AND MYELODYSPLASTIC SYNDROME, AND METHODS FOR IDENTIFYING AGENTS FOR TREATING SAME” (Sanford-Burnham Medical Research Institute, priority 2007, published 2012).

SMILES strings stand for the structures. Structures can show the parent of a compound that is named as a salt.

Test [1] addresses T1, HePTP (Homo sapiens, UniProt P35236).
T1 sequence (P35236 1-360): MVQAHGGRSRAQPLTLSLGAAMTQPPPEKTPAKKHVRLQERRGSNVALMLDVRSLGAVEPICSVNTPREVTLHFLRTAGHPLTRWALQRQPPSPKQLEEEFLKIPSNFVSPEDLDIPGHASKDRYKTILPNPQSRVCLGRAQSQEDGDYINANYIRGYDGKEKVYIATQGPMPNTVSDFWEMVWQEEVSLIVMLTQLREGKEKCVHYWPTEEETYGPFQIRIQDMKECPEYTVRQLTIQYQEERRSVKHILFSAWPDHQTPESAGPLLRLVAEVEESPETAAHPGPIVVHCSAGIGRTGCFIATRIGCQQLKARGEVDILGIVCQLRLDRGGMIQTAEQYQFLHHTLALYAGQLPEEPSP
Put plainly: HePTP HTS primary screen (colorimetric pNPP / Biomol Green). It counts as biochemical. Conditions: 20 μM compound; for inhibition at 20 µM: read-out: % Inhib. at 20 μM. From the text: (§1) The following assay can be conducted manually or can be carried out by a robotic station.
For this assay, HePTP catalyzes the following reaction:
wherein p-nitrophenyl phosphate serves as a substrate and is cleaved to form p-nitrophenol and phosphate. The liberated phosphate complexes with the Biomol Green™ reagent to provide a quantitative colorimetric value for the amount of substrate cleaved.
(§2) Compounds are then serially diluted in 100% DMSO, and then diluted with water to 10% final DMSO concentration.
(§3) The primary screening actives can then proceed to the dose-response confirmation stage.

Test [2] concerns the target T1, HePTP. Put plainly: HePTP dose-response confirmation screening. It counts as biochemical. Conditions: for IC50: 10 concentrations, 2-fold serial dilution, pNPP substrate; for n / nH (Hill coefficient): Hill coefficient of the dose-response curve.
Excerpt: as §1, §2, §3
* n represents the Hill coefficient. This coefficient is derived from the Hill equation which has the formula: […]
wherein θ is the fraction of ligand binding sites filled, L is the inhibitor concentration, Ka is the inhibitor concentration producing half occupation of the ligand binding sites, and n is the Hill coefficient.

The term IC50 denotes the concentration that gives 50% inhibition. Low values mean inhibition by little substance, high ones a need for much substance. Consider `COc1ccc(N2Cc3cccc(C(=O)O)c3C2=O)cc1` [2-(4-Methoxyphenyl)-3-oxo-1H-isoindole-4-carboxylic acid], for which, at HePTP [1], the inhibition at 20 µM was 57.2%. For the same molecule, on HePTP [2], the IC50 stood at 1170 nM and the “n / nH (Hill coefficient)” value turned out to be 3.7.

Take `O=C(COC(=O)c1cccc(S(=O)(=O)N2CCN(c3ccccc3)CC2)c1)NCc1ccco1` [2-Furylmethylcarbamoylmethyl 3-(4-phenylpiperazin-1-yl)sulfonylbenzoate]: the inhibition at 20 µM on HePTP [1] turned out to be 50.7%. Further, on HePTP [2], it took 4970 nM to reach half-maximal inhibition (IC50) and the “n / nH (Hill coefficient)” value came to 2.07.

Turning to `Cc1ccc(C)n1-c1cccc(C(=O)O)c1` [3-(2,5-Dimethylpyrrol-1-yl)benzoic acid], at HePTP [1], the inhibition at 20 µM came out at 102%. Moreover, on HePTP [2], 1300 nM corresponded to half-maximal inhibition (IC50) and the “n / nH (Hill coefficient)” value was 2.59.

`O=C(CCS(=O)(=O)c1ccc(Br)cc1)NCc1cccs1` [3-(4-Bromophenyl)sulfonyl-N-(thiophen-2-ylmethyl)propanamide]: on HePTP [1], the inhibition at 20 µM amounted to 103%. In addition, on HePTP [2], the IC50 is 68300 nM and the “n / nH (Hill coefficient)” value was found to be 1.24.

For `c1ccc(CSc2nnc(-c3ccco3)c(-c3ccco3)n2)cc1` [3-Benzylsulfanyl-5,6-bis(2-furyl)-1,2,4-triazine], the inhibition at 20 µM on HePTP [1] is 53.9%. In addition, at HePTP [2], the IC50 worked out at 2740 nM and the “n / nH (Hill coefficient)” value was 1.32.

As to `O=C(O)c1cccc(-n2cccc2/C=N/O)c1` [3-[2-(Hydroxyiminomethyl)pyrrol-1-yl]benzoic acid], the inhibition at 20 µM on HePTP [1] was found to be 58.1%. Also, at HePTP [2], it took 1400 nM to reach half-maximal inhibition (IC50) and the “n / nH (Hill coefficient)” value was determined as 1.45.

With `COc1ccc(Br)cc1/C=c1\sc2nc(-c3ccco3)nn2c1=O` [3-[(5-Bromo-2-methoxy-phenyl)methylidene]-7-(2-furyl)-4-thia-1,6,8-triazabicyclo[3.3.0]octa-5,7-dien-2-one], on HePTP [1], the inhibition at 20 µM was found to be 95.3%. Also, on HePTP [2], the IC50 was 420 nM and the “n / nH (Hill coefficient)” value came to 2.5.

Consider `NC(=O)c1c(NC(=O)CSc2nnc(-c3ccco3)n2-c2ccccc2)sc2c1CCC2` [3-[[2-[[5-(2-furyl)-4-phenyl-1,2,4-triazol-3 - yl]sulfanyl]acetyl]amino]-4-thiabicyclo[3.3.0]octa-2,9-diene-2-carboxamide], for which the “% Inhib. at 20 μM” value at HePTP [1] was found to be 97.5%. In addition, at HePTP [2], it took 10600 nM to reach half-maximal inhibition (IC50) and the “n / nH (Hill coefficient)” value is 4.06.

On to `CC1(C)CCCN(C(=O)c2coc(=O)c(Br)c2)C1` [3-bromo-5-(3,3-dimethylpiperidine-1-carbonyl)pyran-2-one], for which the inhibition at 20 µM at HePTP [1] was 102%. At HePTP [2], the midpoint of inhibition, the IC50, lay at 400 nM and the “n / nH (Hill coefficient)” value is listed as 2.66.

As for `COc1cccc(C(=O)NC2CC3CCCC(C2)N3CC(=O)Nc2ccccc2)c1` (stereo not drawn) [3-methoxy-N-[9-(phenylcarbamoylmethyl)-9-azabicyclo[3.3.1]non-7-yl]benzamide hydrochloride], on HePTP [1], the inhibition at 20 µM is 103%. Moreover, on HePTP [2], the IC50 worked out at 4670 nM and the “n / nH (Hill coefficient)” value worked out at 4.22.

Consider `O=C(O)c1cc(O)c2c(c1)C(=O)c1cccc(O)c1C2=O` [4,5-Dihydroxy-9,10-dioxo-anthracene-2-carboxylic acid], for which, on HePTP [1], the inhibition at 20 µM came out at 64.2%. At HePTP [2], the IC50 amounted to 19600 nM and the “n / nH (Hill coefficient)” value is listed as 0.76.

With `Cc1cc(C)n(-c2nc(Nc3ccccc3)nc(-n3nc(C)cc3C)n2)n1` [4,6-bis(3,5-Dimethylpyrazol-1-yl)-N-phenyl-1,3,5-triazin-2-amine], the inhibition at 20 µM at HePTP [1] is 50.5%. Moreover, at HePTP [2], the IC50 amounted to 21600 nM and the “n / nH (Hill coefficient)” value is recorded as 2.83.

On to `Cc1cc(C(=O)O)ccc1-n1c(C)ccc1C` [4-(2,5-Dimethylpyrrol-1-yl)-3-methyl-benzoic acid], for which the inhibition at 20 µM at HePTP [1] worked out at 103%. Also, on HePTP [2], the IC50 was 700 nM and the “n / nH (Hill coefficient)” value came to 2.09.
